Laboratory results: PubChem BioAssay (NCI)
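Test compounds were applied to cells in 96-well plates for 48 hours at 5 doses. GI50 is the concentration that inhibits growth by half. TGI: concentration producing complete growth inhibition.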

Experiments:
Experiment in all cases: NCI-60 cell line screen, 48 h
[1] = tested on: HOP-62 NSCLC
[2] = tested on: SF-539 CNS
[3] = tested on: DLD-1 colon
[4] = tested on: A498 renal
[5] = tested on: HCT-116 colon
[6] = tested on: OVCAR-5 ovarian
[7] = tested on: MALME-3M melanoma
[8] = tested on: RXF 393 renal
[9] = tested on: DMS 273 small cell lung
[10] = tested on: NCI-H226 lung
[11] = tested on: SF-268 CNS
[12] = tested on: IGROV1 ovarian
[13] = tested on: COLO 205 colon
[14] = tested on: OVCAR-4 ovarian
[15] = tested on: SNB-75 CNS
[16] = tested on: SR leukemia
[17] = tested on: OVCAR-8 ovarian
[18] = tested on: UACC-257 melanoma
[19] = tested on: CAKI-1 renal
[20] = tested on: MOLT-4 leukemia
[21] = tested on: KM12 colon
[22] = tested on: SK-OV-3 ovarian
[23] = tested on: UO-31 renal
[24] = tested on: HT29 colon
[25] = tested on: LXFL 529 NSCLC
[26] = tested on: XF 498 CNS
[27] = tested on: SW-620 colon
[28] = tested on: A549 NSCLC
[29] = tested on: HCC-2998 colon
[30] = tested on: NCI-H460 lung
[31] = tested on: U251 CNS
[32] = tested on: KM20L2 colon
[33] = tested on: NCI-H522 lung
[34] = tested on: OVCAR-3 ovarian
[35] = tested on: 786-0 renal
[36] = tested on: SK-MEL-28 melanoma
[37] = tested on: ACHN renal
[38] = tested on: SNB-19 CNS
[39] = tested on: SF-295 CNS
[40] = tested on: SN12C renal
[41] = tested on: SK-MEL-2 melanoma
[42] = tested on: HL-60(TB) leukemia
[43] = tested on: TK-10 renal
[44] = tested on: HCT-15 colon
[45] = tested on: LOX IMVI melanoma
[46] = tested on: M14 melanoma
[47] = tested on: EKVX NSCLC
[48] = tested on: HOP-92 NSCLC
[49] = tested on: NCI-H23 lung
[50] = tested on: UACC-62 melanoma
[51] = tested on: M19-MEL melanoma
[52] = tested on: SNB-78 CNS
[53] = tested on: DMS 114 small cell lung
[54] = tested on: SK-MEL-5 melanoma

CCC[CH2][Sn]([CH2]CCC)([O]C(=O)c1ccc(C)c(N)c1)[O]C(=O)c1ccc(C)c(N)c1
GI50 [1]: 2290 nM | TGI [1]: 3780 nM | GI50 [2]: 619 nM | TGI [2]: 1890 nM | GI50 [3]: 282 nM | TGI [3]: 1250 nM | GI50 [4]: 351 nM | TGI [4]: 1210 nM | GI50 [5]: 527 nM | TGI [5]: 1860 nM | GI50 [6]: 1820 nM | TGI [6]: 3220 nM | GI50 [7]: 179 nM | TGI [7]: 776 nM | GI50 [8]: 116 nM | TGI [8]: 511 nM | GI50 [9]: 623 nM | TGI [9]: 1970 nM | GI50 [10]: 334 nM | TGI [10]: 1440 nM | GI50 [11]: 418 nM | TGI [11]: 1630 nM | GI50 [12]: 1160 nM | TGI [12]: 2420 nM | GI50 [13]: 330 nM | TGI [13]: 1380 nM | GI50 [14]: 1240 nM | TGI [14]: 2480 nM | GI50 [15]: 502 nM | TGI [15]: 1870 nM | GI50 [16]: 179 nM | TGI [16]: 3620 nM | GI50 [17]: 910 nM | TGI [17]: 2120 nM | GI50 [18]: 334 nM | TGI [18]: 1620 nM | GI50 [19]: 136 nM | TGI [19]: 1380 nM | GI50 [20]: 108 nM | TGI [20]: 643 nM | GI50 [21]: 1310 nM | TGI [21]: 2610 nM | GI50 [22]: 1840 nM | TGI [22]: 3240 nM | GI50 [23]: 1110 nM | TGI [23]: 2310 nM | GI50 [24]: 1340 nM | TGI [24]: 2640 nM | GI50 [25]: 47.3 nM | TGI [25]: 176 nM | GI50 [26]: 181 nM | TGI [26]: 353 nM | GI50 [27]: 224 nM | TGI [27]: 1040 nM | GI50 [28]: 2820 nM | TGI [28]: 8330 nM | GI50 [29]: 1140 nM | TGI [29]: 2360 nM | GI50 [30]: 1430 nM | TGI [30]: 2740 nM | GI50 [31]: 287 nM | TGI [31]: 1280 nM | GI50 [32]: 1500 nM | TGI [32]: 2820 nM | GI50 [33]: 18 nM | TGI [33]: 117 nM | GI50 [34]: 1070 nM | TGI [34]: 2260 nM | GI50 [35]: 323 nM | TGI [35]: 1310 nM | GI50 [36]: 347 nM | TGI [36]: 1570 nM | GI50 [37]: 352 nM | TGI [37]: 1320 nM | GI50 [38]: 1200 nM | TGI [38]: 2430 nM | GI50 [39]: 1240 nM | TGI [39]: 2490 nM | GI50 [40]: 537 nM | TGI [40]: 1830 nM | GI50 [41]: 172 nM | TGI [41]: 720 nM | GI50 [42]: 144 nM | TGI [42]: 863 nM | GI50 [43]: 515 nM | TGI [43]: 1660 nM | GI50 [44]: 698 nM | TGI [44]: 2010 nM | GI50 [45]: 185 nM | TGI [45]: 681 nM | GI50 [46]: 647 nM | TGI [46]: 1920 nM | GI50 [47]: 600 nM | TGI [47]: 1940 nM | GI50 [48]: 305 nM | TGI [48]: 1700 nM | GI50 [49]: 203 nM | TGI [49]: 1000 nM | GI50 [50]: 378 nM | TGI [50]: 1440 nM | GI50 [51]: 244 nM | TGI [51]: 1280 nM | GI50 [52]: 277 nM | TGI [52]: 1540 nM | GI50 [53]: 132 nM | TGI [53]: 322 nM | GI50 [54]: 1080 nM | TGI [54]: 2280 nM
